# Data taken from patent publication US20220071976A1 (CHASE THERAPEUTICS CORPORATION, priority 2018, published 2022).
# “Also recorded” adds a separate entry of the source.
# Experiments:
# [1] = cited from earlier work; for improvement over baseline versus placebo on the MADRS: endpoint week 8, pramipexole 1.0 mg/day, fluoxetine 20 mg/day
# [2] = high doses of pramipexole; cited from earlier work
SMILES,improvement over baseline versus placebo on the MADRS [1],effect on dose-limiting gastro-intestinal adverse events of pramipexole (concomitant oral administration of domperidone with high doses of pramipexole),"subjects reaching first intolerable dose FID-1 (human, in vivo, po)","dose limiting toxicity (pramipexole alone, single oral increasing doses)",activity in animal behavior tests simulating symptoms of depression [2],patients reporting nausea ([1]; pramipexole 5.0 mg/day group),patients reporting vomiting ([1]; pramipexole 5.0 mg/day group),"patients who discontinued treatment prematurely, mainly because of adverse events ([1]; pramipexole 5.0 mg/day group)","improvement at week 8 (change from baseline) ([1]; pramipexole 5.0 mg/day group, scale not stated, no p value because of high drop-out rate)"
CNCCC(Oc1ccc(C(F)(F)F)cc1)c1ccccc1 (stereo not shown) [fluoxetine],significantly better improvement over baseline than the placebo group,,,,,,,,
"O=c1[nH]c2ccccc2n1CCCN1CCC(n2c(=O)[nH]c3cc(Cl)ccc32)CC1 [domperidone, 5-chloro-1-(1-[3-(2-oxo-2,3-dihydro-1H-benzo[d]imidazol-1-yl)propyl]piperidin-4-yl)-1H-benzo[d]imidazol-2(3H)-one]",,prevented the occurrence of dose-limiting gastro-intestinal adverse events; also recorded: attenuated dose-limiting gastro-intestinal adverse effects,,,,,,,
"CCCN[C@H]1CCc2nc(N)sc2C1 [pramipexole, (S)-6-propylamino-4,5,6,7-tetrahydro-1,3-benzothiazole-2-amine]",significantly better improvement over baseline than the placebo group,,All subjects reached FID-1,gastro-intestinal adverse events in all subjects,active,76%,39%,57.6%,−15.00
